Measured values reported in PubChem BioAssay AID2060908 (Molecular Pharmacology Branch, DTP, NCI, 2025).
“And” between values parts separate entries of the source, which are not always exact repeats. Identical values can stand only once.

Test system: 186277-243-T-J2-PDC complex spheroids, viability
Experiment: Anticancer human tumor 186277-243-T-J2-PDC patient-derived colon adenocarcinoma cell line growth inhibition [RAS]
Conditions: for viability, T/C: stronger effect = lower value
How it was run: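 Tumour cells grown as complex spheroids with HUVEC endothelial cells and mesenchymal stem cells, treated with RAS pathway inhibitor combinations. Each agent spans half-log steps from near clinical Cmax, or 10 microM where Cmax is unknown.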

[1] = curve of first compound, second compound 0.000949 µM
[2] = curve of first compound, second compound 0.003 µM
[3] = curve of first compound, second compound 0.00949 µM
[4] = curve of first compound, second compound 0.03 µM
[5] = curve of first compound, second compound 0.0949 µM
[6] = curve of first compound, second compound 0.3 µM
[7] = second compound 0.000949 µM, first compound 0.0316 µM
[8] = second compound 0.000949 µM, first compound 0.1 µM
[9] = second compound 0.000949 µM, first compound 0.316 µM
[10] = second compound 0.000949 µM, first compound 1 µM
[11] = second compound 0.003 µM, first compound 0.0316 µM
[12] = second compound 0.003 µM, first compound 0.1 µM
[13] = second compound 0.003 µM, first compound 0.316 µM
[14] = second compound 0.003 µM, first compound 1 µM
[15] = second compound 0.00949 µM, first compound 0.0316 µM
[16] = second compound 0.00949 µM, first compound 0.1 µM
[17] = second compound 0.00949 µM, first compound 0.316 µM
[18] = second compound 0.00949 µM, first compound 1 µM
[19] = second compound 0.03 µM, first compound 0.0316 µM
[20] = second compound 0.03 µM, first compound 0.1 µM
[21] = second compound 0.03 µM, first compound 0.316 µM
[22] = second compound 0.03 µM, first compound 1 µM
[23] = second compound 0.0949 µM, first compound 0.0316 µM
[24] = second compound 0.0949 µM, first compound 0.1 µM
[25] = second compound 0.0949 µM, first compound 0.316 µM
[26] = second compound 0.0949 µM, first compound 1 µM
[27] = second compound 0.3 µM, first compound 0.0316 µM
[28] = second compound 0.3 µM, first compound 0.1 µM
[29] = second compound 0.3 µM, first compound 0.316 µM
[30] = second compound 0.3 µM, first compound 1 µM
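Further: spheroids exposed to compounds for 7 days before viability read.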

Cc1nc(N2CCC3(CC2)COC(C)C3N)c(CO)nc1Sc1ccnc(N)c1Cl (centres undefined) + C#Cc1c(F)ccc2cc(O)cc(-c3ncc4c(N5CC6CCC(C5)N6)nc(OCC56CCCN5CC(F)C6)nc4c3F)c12
IC50 (curve of first compound, second compound 0.0316 µM): 114 nM
IC50 (curve of first compound, second compound 0.1 µM): < 31.6 nM
IC50 (curve of first compound, second compound 0.316 µM): < 31.6 nM
IC50 (curve of first compound, second compound 1 µM): < 31.6 nM
IC50 (curve of first compound, second compound 3.16 µM): < 31.6 nM
IC50 (curve of first compound, second compound 10 µM): < 31.6 nM
viability, T/C (second compound 0.0316 µM, first compound 0.0316 µM): 60.5%
viability, T/C (second compound 0.0316 µM, first compound 0.1 µM): 53.8%
viability, T/C (second compound 0.0316 µM, first compound 0.316 µM): 23.1%
viability, T/C (second compound 0.0316 µM, first compound 1 µM): 9.38%
viability, T/C (second compound 0.0316 µM, first compound 3.16 µM): 7.2%
viability, T/C (second compound 0.0316 µM, first compound 10 µM): 5.04%
viability, T/C (second compound 0.1 µM, first compound 0.0316 µM): 43.9%
viability, T/C (second compound 0.1 µM, first compound 0.1 µM): 24.9%
viability, T/C (second compound 0.1 µM, first compound 0.316 µM): 9.87%
viability, T/C (second compound 0.1 µM, first compound 1 µM): 9.03%
viability, T/C (second compound 0.1 µM, first compound 3.16 µM): 6.97%
viability, T/C (second compound 0.1 µM, first compound 10 µM): 6.34%
viability, T/C (second compound 0.316 µM, first compound 0.0316 µM): 14.7%
viability, T/C (second compound 0.316 µM, first compound 0.1 µM): 13.1%
viability, T/C (second compound 0.316 µM, first compound 0.316 µM): 9.91%
viability, T/C (second compound 0.316 µM, first compound 1 µM): 8%
viability, T/C (second compound 0.316 µM, first compound 3.16 µM): 6.18%
viability, T/C (second compound 0.316 µM, first compound 10 µM): 5.92%
viability, T/C (second compound 1 µM, first compound 0.0316 µM): 12.2%
viability, T/C (second compound 1 µM, first compound 0.1 µM): 10.3%
viability, T/C (second compound 1 µM, first compound 0.316 µM): 8.18%
viability, T/C (second compound 1 µM, first compound 1 µM): 5.06%
viability, T/C (second compound 1 µM, first compound 3.16 µM): 6.45%
viability, T/C (second compound 1 µM, first compound 10 µM): 4.66%
viability, T/C (second compound 3.16 µM, first compound 0.0316 µM): 8.78%
viability, T/C (second compound 3.16 µM, first compound 0.1 µM): 9.76%
viability, T/C (second compound 3.16 µM, first compound 0.316 µM): 7.42%
viability, T/C (second compound 3.16 µM, first compound 1 µM): 6.36%
viability, T/C (second compound 3.16 µM, first compound 3.16 µM): 5.23%
viability, T/C (second compound 3.16 µM, first compound 10 µM): 4.36%
viability, T/C (second compound 10 µM, first compound 0.0316 µM): 7.27%
viability, T/C (second compound 10 µM, first compound 0.1 µM): 4.82%
viability, T/C (second compound 10 µM, first compound 0.316 µM): 6.12%
viability, T/C (second compound 10 µM, first compound 1 µM): 4.54%
viability, T/C (second compound 10 µM, first compound 3.16 µM): 4.2%
viability, T/C (second compound 10 µM, first compound 10 µM): 1.83%

CCN1CCN(Cc2ccc(Nc3ncc(F)c(-c4cc(F)c5nc(C)n(C(C)C)c5c4)n3)nc2)CC1 + CCn1c(-c2cc(N3CCN(C)CC3)cnc2C(C)OC)c2c3cc(ccc31)-c1csc(n1)CC(NC(=O)C1CC1C)C(=O)N1CCCC(N1)C(=O)OCC(C)(C)C2
IC50 [1]: > 1000 nM
IC50 [2]: 357 nM
IC50 [3]: 3.65 nM
IC50 [4]: < 3.16 nM
IC50 [5]: < 3.16 nM
IC50 [6]: < 3.16 nM
viability, T/C (second compound 0.000949 µM, first compound 0.00316 µM): 102%
viability, T/C (second compound 0.000949 µM, first compound 0.01 µM): 121%
viability, T/C [7]: 140%
viability, T/C [8]: 149%
viability, T/C [9]: 121%
viability, T/C [10]: 76.6%
viability, T/C (second compound 0.003 µM, first compound 0.00316 µM): 105%
viability, T/C (second compound 0.003 µM, first compound 0.01 µM): 111%
viability, T/C [11]: 107%
viability, T/C [12]: 86.1%
viability, T/C [13]: 53%
viability, T/C [14]: 32%
viability, T/C (second compound 0.00949 µM, first compound 0.00316 µM): 50.8%
viability, T/C (second compound 0.00949 µM, first compound 0.01 µM): 43.8%
viability, T/C [15]: 32.7%
viability, T/C [16]: 22.1%
viability, T/C [17]: 16.8%
viability, T/C [18]: 12.3%
viability, T/C (second compound 0.03 µM, first compound 0.00316 µM): 14.5%
viability, T/C (second compound 0.03 µM, first compound 0.01 µM): 13.7%
viability, T/C [19]: 11.9%
viability, T/C [20]: 9.88%
viability, T/C [21]: 9.46%
viability, T/C [22]: 8.2%
viability, T/C (second compound 0.0949 µM, first compound 0.00316 µM): 7.73%
viability, T/C (second compound 0.0949 µM, first compound 0.01 µM): 7.37%
viability, T/C [23]: 6.72%
viability, T/C [24]: 6.74%
viability, T/C [25]: 7.64%
viability, T/C [26]: 7%
viability, T/C (second compound 0.3 µM, first compound 0.00316 µM): 6.2%
viability, T/C (second compound 0.3 µM, first compound 0.01 µM): 5.86%
viability, T/C [27]: 6.14%
viability, T/C [28]: 6.13%
viability, T/C [29]: 6.52%
viability, T/C [30]: 6.25%

CC1(O)CCCC1n1c(=O)c(C(F)F)cc2cnc(NC3CCN(S(C)(=O)=O)CC3)nc21 (centres undefined) + CCn1c(-c2cccnc2C(C)OC)c2c3cc(ccc31)N1CCOC(CC(NC(=O)C(C(C)C)N(C)C(=O)C3(F)CCN(C(=O)C#CC(C)(C)N(C)C)CC3)C(=O)N3CCCC(N3)C(=O)OCC(C)(C)C2)C1
IC50 [1]: 4330 nM
IC50 [2]: 4480 nM
IC50 [3]: 4380 nM
IC50 [4]: 4350 nM
IC50 [5]: 3590 nM
IC50 [6]: 1170 nM
viability, T/C [7]: 129%
viability, T/C [8]: 113%
viability, T/C [9]: 122%
viability, T/C [10]: 86.7%
viability, T/C (second compound 0.000949 µM, first compound 3.16 µM): 74.8%
viability, T/C (second compound 0.000949 µM, first compound 10 µM): 1.88%
viability, T/C [11]: 96.5%
viability, T/C [12]: 122%
viability, T/C [13]: 104%
viability, T/C [14]: 93.2%
viability, T/C (second compound 0.003 µM, first compound 3.16 µM): 71.7%
viability, T/C (second compound 0.003 µM, first compound 10 µM): 2.18%
viability, T/C [15]: 116%
viability, T/C [16]: 116%
viability, T/C [17]: 115%
viability, T/C [18]: 84.3%
viability, T/C (second compound 0.00949 µM, first compound 3.16 µM): 75.7%
viability, T/C (second compound 0.00949 µM, first compound 10 µM): 2.28%
viability, T/C [19]: 111%
viability, T/C [20]: 117%
viability, T/C [21]: 108%
viability, T/C [22]: 80.3%
viability, T/C (second compound 0.03 µM, first compound 3.16 µM): 77.2%
viability, T/C (second compound 0.03 µM, first compound 10 µM): 1.84%
viability, T/C [23]: 108%
viability, T/C [24]: 113%
viability, T/C [25]: 80.9%
viability, T/C [26]: 73.3%
viability, T/C (second compound 0.0949 µM, first compound 3.16 µM): 69%
viability, T/C (second compound 0.0949 µM, first compound 10 µM): 1.68%
viability, T/C [27]: 114%
viability, T/C [28]: 91.7%
viability, T/C [29]: 56.2%
viability, T/C [30]: 56.8%
viability, T/C (second compound 0.3 µM, first compound 3.16 µM): 53.8%
viability, T/C (second compound 0.3 µM, first compound 10 µM): 0.94%

NC1c2ccccc2OC12CCN(c1cnc3c(N4CCCc5ncccc54)n[nH]c3n1)CC2 (centres undefined)
viability, T/C (compound 0.316 µM): 99.6% [middle of 4 runs]
viability, T/C (compound 10 µM): 73.3% [middle of 4 runs]
IC50 (curve of compound): > 10000 nM

CC(C)n1nc(-c2ccc3oc(N)nc3c2)c2c(N)ncnc21
viability, T/C (compound 0.000316 µM): 107% [middle of 4 runs]
viability, T/C (compound 0.001 µM): 96.7% [middle of 4 runs]
viability, T/C (compound 0.00316 µM): 101% and 98% and 107% (2×)
viability, T/C (compound 0.01 µM): 92.9% [middle of 4 runs]
viability, T/C (compound 0.1 µM): 47.7% [middle of 4 runs]
